Drawing on US20240327393A1 (SIRONAX LTD., priority 2021, published 2024), this text covers EC50 for 31 compounds.

For this test, the system named is HT-1080 (ATCC, CCL-121) cells. Kind of test: HT-1080 cell viability assay with ferroptosis inducer RSL3 (Cell Titer-Glo). Format: cell-based. As to conditions: HT-1080 cells treated with RSL3, 3-fold, 10-point dilution, 1.1 μM highest concentration, read-out: EC50 (nM), ferroptosis inhibitory activity. The essentials: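 EC50 was derived by sigmoidal dose-response regression of CellTiter-Glo luminescence viability, expressed relative to untreated wells. Compounds were tested in a ten-point, threefold dilution series (highest 1.1 μM) in the presence of the ferroptosis inducer RSL3. HT-1080 cells had been seeded at 6000 per well and grown overnight first.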

Where two headings read alike, the source gives them in different places.

Turning to `CNCCN1C(=O)COc2cc(Nc3ccc(N4CCC(C(F)(F)F)CC4)cc3)ccc21` [Compound 43, 4-(2-(methylamino)ethyl)-7-((4-(4-(trifluoromethyl)piperidin-1-yl)phenyl)amino)-2H-benzo[b][1,4]oxazin-3(4H)-one], under “Homo sapiens, Table 2”, the EC50 (commonly the concentration needed to bring the measured effect to its halfway point) was in the range of 0.1 to 100 nM.
The same measure, in the same setting: the same measure for `CCC1CN(c2ccc(Nc3ccc4c(c3)OCC(=O)N4C)c(C)c2)CCO1` (stereo not shown) [Compound 147, 7-((4-(2-ethylmorpholino)-2-methylphenyl)amino)-4-methyl-2H-benzo[b][1,4]oxazin-3(4H)-one]: 0.1 to 100 nM; for `Cn1c(=O)n(C)c2cc(Nc3ccsc3)ccc21` [Compound 342, 1,3-dimethyl-5-(thiophen-3-ylamino)-1,3-dihydro-2H-benzo[d]imidazol-2-one]: 100 to 1000 nM; for `CC1CN(c2ccc(Nc3ccc4c(c3)c(C(N)=O)cn4C)cc2)CC(C)O1` (stereo not shown) [Compound 425, 5-((4-(2,6-dimethylmorpholino)phenyl)amino)-1-methyl-1H-indole-3-carboxamide]: 0.1 to 100 nM.
Still for that read-out and setting: in the case of `CCN1C(=O)COc2cc(Nc3ccc(N4CCC(C(F)(F)F)CC4)nc3)ccc21` [Compound 24, 4-ethyl-7-((6-(4-(trifluoromethyl)piperidin-1-yl)pyridin-3-yl)amino)-2H-benzo[b][1,4]oxazin-3(4H)-one] it was 0.1 to 100 nM.
On the same count and under the same terms, the same measure for `CN(C)c1ccc(Nc2ccc3c(c2)n(C)c(=O)n3C)cc1` [Compound 284, 5-((4-(dimethylamino)phenyl)amino)-1,3-dimethyl-1,3-dihydro-2H-benzo[d]imidazol-2-one]: 0.1 to 100 nM.
For `O=C1COc2cc(Nc3ccc(N4CCC(F)(F)CC4)cc3)ccc2N1` [Compound 524, 7-((4-(4,4-difluoropiperidin-1-yl)phenyl)amino)-2H-benzo[b][1,4]oxazin-3(4H)-one], where the note is “Homo sapiens, Table 3”, the EC50 lay within 0.1 to 100 nM.
With `Cn1c(=O)oc2cc(Nc3ccc(N4CC5(CCC5)C4)cc3)ccc21` [Compound 327, 6-((4-(2-azaspiro[3.3]heptan-2-yl)phenyl)amino)-3-methylbenzo[d]oxazol-2(3H)-one], the EC50 (Homo sapiens, Table 2) lay in the range of 0.1 to 100 nM.
For `Cc1cc(N2CCN(CC(F)(F)F)CC2)ccc1Nc1ccc2c(c1)OCC(=O)N2` [Compound 569, 7-((2-methyl-4-(4-(2,2,2-trifluoroethyl)piperazin-1-yl)phenyl)amino)-2H-benzo[b][1,4] oxazin-3(4H)-one], the EC50 (Homo sapiens, Table 3) lay within 0.1 to 100 nM.
For `CNCCCN1C(=O)COc2cc(Nc3ccc(N4CC(C)OC(C)C4)cc3C)ccc21` (stereo not shown) [Compound 50, 7-((4-(2,6-dimethylmorpholino)-2-methylphenyl)amino)-4-(3-(methylamino)propyl)-2H-benzo[b][1,4]oxazin-3(4H)-one], the EC50 (Homo sapiens, Table 2) was 0.1 to 100 nM.
Regarding `COC1(C(F)(F)F)CCN(c2ccc(Nc3ccc4c(c3)OCCC(=O)N4)c(C)c2)C1` (stereo not shown) [Compound 647, 8-((4-(3-methoxy-3-(trifluoromethyl)pyrrolidin-1-yl)-2-methylphenyl)amino)-2,3-dihydrobenzo[b][1,4]oxazepin-4(5H)-one], the EC50 (Homo sapiens, Table 3) was in the range of 0.1 to 100 nM.
Consider `COCCOc1ccc(Nc2ccc3c(c2)CN(C)C3=O)cc1` [Compound 237, 5-((4-(2-methoxyethoxy)phenyl)amino)-2-methylisoindolin-1-one], for which the EC50 (Homo sapiens, Table 2) is 0.1 to 100 nM.
With `CN1C(=O)COc2cc(N(C)c3ccc(N4CCC(C(F)(F)F)CC4)cc3)ccc21` [Compound 532, 4-methyl-7-(methyl(4-(4-(trifluoromethyl)piperidin-1-yl)phenyl)amino)-2H-benzo[b][1,4]oxazin-3(4H)-one], for the setting “Homo sapiens, Table 3”, the EC50 lay in the range of 100 to 1000 nM.
On the same count and under the same terms, in the case of `Cc1cc(N2CCC(C(F)(F)F)CC2)ccc1Nc1ccc2c(c1)OC(CN)C(=O)N2C` (stereo not shown) [Compound 607, 2-(aminomethyl)-4-methyl-7-((2-methyl-4-(4-(trifluoromethyl)piperidin-1-yl)phenyl)amino)-2H-benzo[b][1,4]oxazin-3(4H)-one] it was 0.1 to 100 nM.
In the case of `CC1CCN(c2ccc(Nc3ccc4c(c3)c(N)nn4C)cc2)CC1` [Compound 352, 1-methyl-N5-(4-(4-methylpiperidin-1-yl)phenyl)-1H-indazole-3,5-diamine], where the note is “Homo sapiens, Table 2”, the EC50 fell in the range of 0.1 to 100 nM.
For the compound `Cn1[nH]c2cc(Nc3ccc(N4CCC(C(F)(F)F)CC4)c(F)c3)ccc2c1=O` [Compound 219, 6-((3-fluoro-4-(4-(trifluoromethyl)piperidin-1-yl)phenyl)amino)-2-methyl-1,2-dihydro-3H-indazol-3-one], under “Homo sapiens, Table 2”, the EC50 was in the range of 0.1 to 100 nM.
Consider `Cc1c(Nc2ccc3c(c2)OCC(=O)N3C)ccc(N2CCC(C(F)(F)F)CC2)c1C#N` [Compound 492, 2-methyl-3-((4-methyl-3-oxo-3,4-dihydro-2H-benzo[b][1,4]oxazin-7-yl)amino)-6-(4-(trifluoromethyl)piperidin-1-yl)benzonitrile], for which, under “Homo sapiens, Table 3”, the EC50 lay within 0.1 to 100 nM.
Still for that read-out and setting: the same measure for `COc1cc(Nc2cnc3c(c2)OCC(=O)N3C)ccc1N1CCC(C(F)(F)F)CC1` [Compound 464, 7-({3-methoxy-4-[4-(trifluoromethyl)piperidin-1-yl]phenyl}amino)-4-methyl-2H-pyrido[3,2-b][1,4]oxazin-3-one]: 0.1 to 100 nM.
As for `Cc1cc(N2CC(C)OC(C)C2)ccc1Nc1ccc2c(cnn2C)c1` (stereo not shown) [Compound 437, N-(4-(2,6-dimethylmorpholino)-2-methylphenyl)-1-methyl-1H-indazol-5-amine], the EC50 (Homo sapiens, Table 2) was in the range of 0.1 to 100 nM.
With `Cc1cc(Nc2ccc3c(c2)OCC(=O)N3CCO)ccc1N1CC(C)OC(C)C1` (stereo not shown) [Compound 461, 7-((4-(2,6-dimethylmorpholino)-3-methylphenyl)amino)-4-(2-hydroxyethyl)-2H-benzo[b][1,4]oxazin-3(4H)-one], the EC50 (Table 3) was in the range of 0.1 to 100 nM.
In the case of `Cc1cc(N2CCC(O)(C(F)(F)F)C2)ccc1Nc1ccc2c(c1)OCC(=O)N2` (stereo not shown) [Compound 617, 7-((4-(3-hydroxy-3-(trifluoromethyl)pyrrolidin-1-yl)-2-methylphenyl)amino)-2H-benzo[b][1,4]oxazin-3(4H)-one], the EC50 (Homo sapiens, Table 3) was 0.1 to 100 nM.
`CC1CN(c2ccc(Nc3ccc4c(c3)OC(C)C(=O)N4)cc2)CC(C)O1` (stereo not shown) [Compound 139, 7-((4-(2,6-dimethylmorpholino)phenyl)amino)-2-methyl-2H-benzo[b][1,4]oxazin-3(4H)-one]: the EC50 (Homo sapiens, Table 2) lay in the range of 0.1 to 100 nM.
On the same count and under the same terms, in the case of `CN1CCOc2cc(Nc3ccc(N4CCC(C(F)(F)F)CC4)cc3)ccc21` [Compound 114, 4-methyl-N-(4-(4-(trifluoromethyl)piperidin-1-yl)phenyl)-3,4-dihydro-2H-benzo[b][1,4]oxazin-7-amine] it was 0.1 to 100 nM; in that of `COc1cc(Nc2ccc3c(c2)n(C)c(=O)n3C)cc(OC)c1OC` [Compound 312, 1,3-dimethyl-5-((3,4,5-trimethoxyphenyl)amino)-1,3-dihydro-2H-benzo[d]imidazol-2-one], 0.1 to 100 nM.
Still for that read-out and setting: in the case of `CC1CN(c2ccc(Nc3ccc4oc(=O)n(C)c4c3)cc2)CC(C)O1` (stereo not shown) [Compound 420, 5-((4-(2,6-dimethylmorpholino)phenyl)amino)-3-methylbenzo[d]oxazol-2(3H)-one] it was 0.1 to 100 nM.
As for `Cc1cc(N2CCC(C(F)(F)F)CC2)cc2c1[nH]c1cc3cnn(C(N)=O)c3cc12` [Compound 615, 6-methyl-8-(4-(trifluoromethyl)piperidin-1-yl)pyrazolo[4,3-b]carbazole-1(5H)-carboxamide], the EC50 (Homo sapiens, Table 3) was 1000 to 10000 nM.
In the case of `CCN(CCC(=O)OC)c1ccc(Nc2ccc3c(c2)n(C)c(=O)n3C)cc1` [Compound 361, methyl 3-((4-((1,3-dimethyl-2-oxo-2,3-dihydro-1H-benzo[d]imidazol-5-yl)amino)phenyl)(ethyl)amino)propanoate], the EC50 (Homo sapiens, Table 2) lay within 100 to 1000 nM.
As for `Cc1cc(N2CCC(C(F)(F)F)CC2)ccc1Nc1ccc2c(c1)OC[C@H](N)C(=O)N2` [Compound 601, (S)-8-(4-(4-(trifluoromethyl)piperidin-1-yl)-2-methylphenylamino)-3-amino-2,3-dihydrobenzo[b][1,4]oxazepin-4(5H)-one], under “Homo sapiens, Table 3”, the EC50 was in the range of 0.1 to 100 nM.
Same read-out and setting: the same measure for `Cc1cc(N2CCC(F)(F)C2)ccc1Nc1ccc2c(c1)OCCC(=O)N2` [Compound 622, 8-((4-(3,3-difluoropyrrolidin-1-yl)-2-methylphenyl)amino)-2,3-dihydrobenzo[b][1,4]oxazepin-4(5H)-one]: 0.1 to 100 nM.
For the compound `CNCCN1C(=O)COc2cc(Nc3ccc(C(C)(C)C)cc3)ccc21` [Compound 48, 7-((4-(tert-butyl)phenyl)amino)-4-(2-(methylamino)ethyl)-2H-benzo[b][1,4]oxazin-3(4H)-one], under “Homo sapiens, Table 2”, the EC50 lay within 0.1 to 100 nM.
On the same count and under the same terms, in the case of `CCN1Cc2cc(Nc3cc(F)c(N4CCC(C)CC4)c(F)c3)ccc2C1=O` [Compound 193, 5-((3,5-difluoro-4-(4-methylpiperidin-1-yl)phenyl)amino)-2-ethylisoindolin-1-one] it was 0.1 to 100 nM.
